Measurements as given in the NIST ThermoML archive (doi:10.1016/j.jct.2012.10.023).
± gives the expanded uncertainty stated by the source.

Assay: xn = mol fraction of the nth substance listed
Conditions: 101 kPa, Liquid; for speed of sound: Sing-around technique in a fixed-path interferometer; for mass density: Vibrating tube method

CCCCCCCCCO [nonan-1-ol] + Cc1cc(C)cc(C)c1
Conditions | mass density, 298.15 K [kg/m3] | mass density, 308.15 K [kg/m3] | speed of sound, 298.15 K [m/s] | speed of sound, 308.15 K [m/s]
x2 = 0 | 824.271 ± 0.17 | 817.362 ± 0.17 | 1363.1 ± 1 | 1330.4 ± 1
x2 = 0.0696 | 826.211 ± 0.17 | 819.181 ± 0.17 | 1360.9 ± 1 | 1327.3 ± 1
x2 = 0.1267 | 827.826 ± 0.17 | 820.708 ± 0.17 | 1358.8 ± 1 | 1324.6 ± 1
x2 = 0.195 | 829.792 ± 0.17 | 822.576 ± 0.17 | 1356 ± 1 | 1321 ± 1
x2 = 0.2375 | 831.043 ± 0.17 | 823.768 ± 0.17 | 1354 ± 1 | 1318.6 ± 0.99
x2 = 0.3044 | 833.053 ± 0.17 | 825.691 ± 0.17 | 1350.8 ± 1 | 1314.8 ± 0.99
x2 = 0.362 | 834.839 ± 0.17 | 827.405 ± 0.17 | 1347.8 ± 1 | 1311.4 ± 0.99
x2 = 0.4358 | 837.211 ± 0.17 | 829.683 ± 0.17 | 1344.1 ± 1 | 1307.4 ± 0.99
x2 = 0.5112 | 839.754 ± 0.17 | 832.121 ± 0.17 | 1340.5 ± 1 | 1303.3 ± 0.99
x2 = 0.5777 | 842.112 ± 0.17 | 834.381 ± 0.17 | 1337.5 ± 1 | 1300 ± 0.99
x2 = 0.6422 | 844.512 ± 0.16 | 836.681 ± 0.17 | 1335.2 ± 1 | 1297.5 ± 0.99
x2 = 0.7091 | 847.143 ± 0.16 | 839.209 ± 0.17 | 1333.3 ± 1 | 1295.2 ± 0.98
x2 = 0.7788 | 850.052 ± 0.16 | 841.998 ± 0.17 | 1332.4 ± 1 | 1293.7 ± 0.98
x2 = 0.8571 | 853.546 ± 0.16 | 845.418 ± 0.16 | 1332.4 ± 1 | 1293.1 ± 0.98
x2 = 0.9234 | 856.701 ± 0.16 | 848.558 ± 0.16 | 1333.4 ± 1 | 1293.8 ± 0.98
